Measured values from US20120316199A1, “COMPOSITIONS AND METHODS FOR TREATING, CONTROLLING, REDUCING, OR AMELIORATING INFLAMMATORY PAIN” (priority 2011, published 2012).
Values joined by “and” are separate entries in the source; they are usually repeats but may differ in a detail not shown here. Equal entries are not always repeated.

Experiments:
[1] = tested on: anterior-segment inflammation after anterior chamber paracentesis; assay: Rabbit paracentesis model, overall anti-inflammatory activity; type: in vivo, Rabbit (New Zealand)
pupillary diameter = assay: Pupillary diameter measurement, rabbit paracentesis model; type: in vivo, Rabbit (New Zealand); conditions: for Pupillary diameter T2: −5 min: 5 min before the first paracentesis; for Pupillary diameter T2: −5 min / Pupillary diameter T3: +115 min / Pupillary diameter T1: −180 min: raw data per eye, listed as BOL; for Pupillary diameter T3: +115 min: 5 min before the second paracentesis; for Pupillary diameter T1: −180 min: basal; for Mean (mm) Δ(T3 − T1) of pupillary diameter: group mean, n=8 eyes
[2] = tested on: protein concentration in the aqueous humor; assay: Protein measurement in aqueous humor, rabbit paracentesis model; type: in vivo, Rabbit (New Zealand); conditions: for Protein level in aqueous humor, Mean: group mean
Experimental: (§1) Each rabbit was placed in a restraint device and tagged with the alphanumeric code. The formulations were instilled (50 μl) into the conjunctival sac of both eyes 180, 120, 90 and 30 min before the first paracentesis; then 15, 30, 90 min after the first paracentesis. To perform the first paracentesis the animals were anaesthetized by intravenous injection of 5 mg/kg Zoletil® (Virbac; 2.5 mg/kg tiletamine HCl and 2.5 mg/kg zolazepam HCl) and one drop of local anesthetic (Novesina®, Novartis) was administered to the eye. Anterior chamber paracentesis was performed with a 26 G needle attached to a tuberculin syringe; the needle was introduced into the anterior chamber through the cornea, taking care not to damage the tissues. Two hours after the first paracentesis, the animals were sacrificed with 0.4 ml Tanax® (Intervet International B.V.) and the second paracentesis was performed. About 100 μl of aqueous humor were removed at the second paracentesis. Aqueous humor was immediately split in four aliquots and stored at −80° C. until analysis. Then both eyes were enucleated and the iris-ciliary body was carefully excised, placed in polypropylene tubes, and stored at −80° C. until analysis.
For protein concentration determination in the aqueous humor we used the Protein Quantification Kit (Fluka; Cat. No. 77371; Lot. No. 1303129). Five microliters of aqueous humor were diluted to 100 μl with water. Twenty microliters of samples and of standards were load into a 96-well plate and recorded in a plate layout. Samples were treated following the assay procedure described in the kit. A microplate reader (GDV, Italy; model DV 990 B/V6) set at 670 nm was used for making the calibration and analyzing the samples.
(§2) Pupillary diameter, PGE2, protein, PMN, and MPO were expressed as mean±SEM. Statistical analysis was performed using one way ANOVA followed by a Newman-Keuls post hoc test. Clinical score was expressed as % of eyes and the statistical analysis was performed using Kruskal-Wallis followed by a Dunn post hoc test. P<0.05 was considered statistically significant in both cases. Prism 4 software (GraphPad Software, Inc.) was used for the analysis and graphs.

[3] = tested on: MPO activity in iris-ciliary body; assay: Myeloperoxidase (MPO) activity in iris-ciliary body, rabbit paracentesis model; type: in vivo, Rabbit (New Zealand); conditions: for MPO activity in iris-ciliary body: individual samples collected after the second paracentesis, listed as BOL; for MPO activity in iris-ciliary body, Mean: after the second paracentesis, group mean
Experimental: as §1
The activity of MPO was measured as previously described by Williams et al.[5] The iris-ciliary bodies were carefully dried, weighed and immersed in 1 ml of hexa-decyl-trimethyl-ammonium bromide solution. Then, the samples were sonicated for 10 sec on ice by a ultrasound homogenizer (HD 2070, Bandelin electronic), freeze-thawed three times, sonicated for 10 sec and centrifuged at 14,000 g for 10 min to remove cellular debris. An aliquot of the supernatant (40-200 μl) was diluted to 3 ml with the o-dianisidine 2HCl/H2O2 solution. The change in absorbance at 460 nm was continuously monitored for 5 min by a spectrophotometer (UV/Vis Spectrometer Lambda EZ 201; Perkin Elmer). The slope of the line (Δ/min) was determined for each sample and used to calculate the number of units of MPO in the tissue as follows:
Values were expressed as units of MPO/g of tissue.
as §2

[4] = tested on: anterior chamber cells and flare following cataract surgery; assay: Clinical study after cataract surgery: resolution of anterior chamber (AC) cells and flare; type: in vivo, human; conditions: 2% QID, 3% QD, 3% BID, and 3% QID
From the text: (§3) There were 8 treatment groups in this study, consisting of three drug doses, vehicle and three dosing frequencies (see also Table 4-1): • Group A: 1% BOL-303242-X ophthalmic suspension, two times per day (BID) • Group B: 2% BOL-303242-X ophthalmic suspension, one time per day (QD) • Group C: 2% BOL-303242-X ophthalmic suspension, BID • Group D: 2% BOL-303242-X ophthalmic suspension, four times per day (QID) • Group E: 3% BOL-303242-X ophthalmic suspension, QD • Group F: 3% BOL-303242-X ophthalmic suspension, BID • Group G: 3% BOL-303242-X ophthalmic suspension, QID • Group H: Vehicle for BOL-303242-X (divided equally into QID, BID, and QD)
Subjects self-administered study drug, instilling 1 to 2 drops of study drug into the study eye: QID at approximately 4 hour intervals, BID at approximately 12 hour intervals, or QD once in the morning, for 14 days. The initial dose occurred in the clinic at Visit 3 and the final dose was on the day before Visit 6 (postoperative Day 15±1 day). Subjects were examined and evaluated according to the following schedule:
Visit 1 (screening), Visit 2 (cataract surgery), Visit 3 (postoperative Day 1), Visit 4 (postoperative Day 3±1 day), Visit 5 (postoperative Day 8±1 day), Visit 6 (postoperative Day 15±1 day), Visit 7 (postoperative Day 18±1 day). […]

ocular signs = assay: Clinical study after cataract surgery: ocular signs (biomicroscopy); type: in vivo, human
From the text: as §3
Visit 1 (screening), Visit 2 (cataract surgery), Visit 3 (postoperative Day 1), Visit 4 (postoperative Day 3±1 day), Visit 5 (postoperative Day 8±1 day), Visit 6 (postoperative Day 15±1 day), Visit 7 (postoperative Day 18±1 day). Subject assessments included adverse events (AEs), concomitant medications, ocular symptoms, pinholed Snellen visual acuity (VA), intraocular pressure (IOP), ocular signs (biomicroscopy), fundoscopy, and study drug drop sensation. In addition, subject diaries were collected and reviewed for accuracy and treatment compliance.
Safety: The safety endpoints in this study were: incidence of AEs, change in IOP, ocular signs (biomicroscopy), Snellen VA, fundoscopy, study drug drop sensation assessment.

## Cc1ccc2c(NC[C@](O)(CC(C)(C)c3cc(F)cc4c3OCC4)C(F)(F)F)cccc2n1 [BOL-303242-X, mapracorat]
[1]; 0.1%, 0.5% and 1% topical formulations, preliminary conclusion
  Activity in the rabbit paracentesis model: active in this model
[1]; rabbit paracentesis model
  Anti-inflammatory effectiveness compared with steroid and NSAID positive controls: as effective an anti-inflammatory drug as some of the commonly accepted prior-art steroids or NSAID
Pupillary diameter; 0.1% formulation
  Pupillary diameter T2: −5 min: 6.5 mm and 7.0 mm and 7.5 mm
  Pupillary diameter T3: +115 min: 5.0 mm and 6.0 mm and 6.5 mm and 5.5 mm
  Pupillary diameter T1: −180 min: 6.5 mm and 7.0 mm and 7.5 mm
  Mean (mm) Δ(T3 − T1) of pupillary diameter: −1.1 mm
Pupillary diameter; 0.5% formulation
  Pupillary diameter T2: −5 min: 8.0 mm and 7.0 mm and 7.5 mm
  Pupillary diameter T3: +115 min: 6.5 mm and 6.0 mm and 7.0 mm
  Pupillary diameter T1: −180 min: 8.0 mm and 7.0 mm and 7.5 mm
  Mean (mm) Δ(T3 − T1) of pupillary diameter: −1.0 mm
Pupillary diameter; 1% formulation
  Pupillary diameter T2: −5 min: 6.0 mm and 6.5 mm and 7.0 mm
  Pupillary diameter T3: +115 min: 5.5 mm and 5.0 mm and 6.0 mm
  Pupillary diameter T1: −180 min: 6.0 mm and 6.5 mm
  Mean (mm) Δ(T3 − T1) of pupillary diameter: −0.9 mm
[2]; 0.1% formulation, second paracentesis
  Protein level in aqueous humor, Mean: 33.667 mg/mL
[2]; 0.5% formulation, p<0.05
  Protein in aqueous humor, statistical significance vs CTR: statistical significance
[2]; 0.5% formulation, second paracentesis
  Protein level in aqueous humor, Mean: 28.844 mg/mL
[2]; 0.5% formulation, second paracentesis, per eye, listed as BOL
  Protein level in aqueous humor, raw data: 33.98 mg/mL and 33.65 mg/mL and 19.99 mg/mL and 27.11 mg/mL and 19.72 mg/mL and 36.35 mg/mL and 27.71 mg/mL and 32.24 mg/mL
[2]; 1% formulation, p<0.001
  Protein in aqueous humor, statistical significance vs CTR: statistical significance
[2]; 1% formulation, second paracentesis
  Protein level in aqueous humor, Mean: 21.435 mg/mL
[3]; 0.1% BOL
  MPO activity in iris-ciliary body: 1.04 Unit/g and 1.14 Unit/g and 1.06 Unit/g and 1.22 Unit/g and 1.05 Unit/g
[3]; 0.1% formulation
  MPO activity in iris-ciliary body, Mean: 0.971 MPO Unit/g
[3]; 0.5% BOL
  MPO activity in iris-ciliary body: 1.03 Unit/g
[3]; 0.5% formulation
  MPO activity in iris-ciliary body, Mean: 0.775 MPO Unit/g
[3]; 1% BOL
  MPO activity in iris-ciliary body: 1.02 Unit/g
[3]; 1% formulation
  MPO activity in iris-ciliary body, Mean: 0.542 MPO Unit/g
[4]
  improvements in AC cells and Grade 0 pain at Visit 5 (postoperative Day 8): statistically significant improvements
Ocular signs; any dose groups at any postoperative visits
  proportions of subjects with increases in scores for anterior vitreous haze, corneal edema, corneal staining, eyelid erythema, hyphema, and posterior synechiae: No statistically significant differences
Ocular signs; certain dose groups at Visits 4, 5, 7 as listed
  proportions of subjects with increases in scores for AC cells, AC flare, bulbar conjunctival injection, chemosis, ciliary flush, palpebral conjunctival injection: statistically significantly lower proportions of subjects with increases in scores
